The results in this text go back to patent US8211929B2, “Pyrimidine derivatives as kinase modulators and method of use” (Exelixis, Inc., priority 2004, dated 2012).

Read-outs that look alike come from different tables or passages of the source. Some results are limits rather than exact numbers.

Experiment [1] concerns the target T1, IGF 3P (Homo sapiens, UniProt P08069).
T1 construct: human IGF1R kinase domain residues M954-C1367; made in house; host or cells: baculovirus expression (insect cells)
Nature of the experiment: IGF1R kinase assay (LCCA), IGF 3P. Type of experiment: biochemical. In outline: (§1)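 Read-out is percent ATP remaining, detected by luciferase-luciferin luminescence after a 2 h ambient reaction. Reaction contained 4 nM IGF1R kinase domain (residues M954-C1367, baculovirus-made), 3 μM ATP (near KM), 4 μM poly EY, pH 7.5 with Mg2+/Mn2+. Ten inhibitor concentrations; IC50 by Hill-type curve fit.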

For experiment [2], the target named is T2, (Homo sapiens, UniProt P08069).
T2 construct: human IGF1R kinase domain residues M954-C1367; made in house; host or cells: baculovirus expression (insect cells)
T2 sequence (P08069 954-1367): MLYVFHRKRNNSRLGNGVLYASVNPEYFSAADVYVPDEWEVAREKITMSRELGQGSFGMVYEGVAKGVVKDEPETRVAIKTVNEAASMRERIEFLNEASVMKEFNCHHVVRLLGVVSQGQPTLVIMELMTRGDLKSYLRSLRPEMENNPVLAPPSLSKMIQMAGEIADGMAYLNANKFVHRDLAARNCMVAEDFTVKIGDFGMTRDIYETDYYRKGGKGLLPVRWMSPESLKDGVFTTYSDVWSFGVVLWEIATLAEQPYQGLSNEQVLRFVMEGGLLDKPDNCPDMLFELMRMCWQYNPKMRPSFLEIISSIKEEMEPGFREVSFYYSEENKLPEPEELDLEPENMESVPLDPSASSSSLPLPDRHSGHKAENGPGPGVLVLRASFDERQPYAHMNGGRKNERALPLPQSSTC
The experiment in a line: IGF1R kinase assay (LCCA), IGF 0P. In kind it is biochemical. In outline:
as §1

T1 sequence (P08069 954-1367): as above

Take `Clc1cccc(Nc2nc(Nc3ccccc3Cl)ncc2Br)c1` [Example 205]: the IC50 in experiment [1] (IGF1R kinase LCCA assay) and in experiment [2] (IGF1R kinase LCCA assay) was 500 to 5000 nM each time.
For the compound `Cc1cc(Nc2cc(C)on2)nc(NCc2cc(-c3ccccc3)no2)n1` [Example 307], the IC50 in experiment [1] (IGF1R kinase LCCA assay) and in experiment [2] (IGF1R kinase LCCA assay) was > 5000 nM throughout.
In the case of `Cc1cc(Nc2cc(C(C)C)[nH]n2)nc(NCc2cc(-c3cccc(Cl)c3)no2)n1` [Example 535], the IC50 in experiment [1] (IGF1R kinase LCCA assay) and in experiment [2] (IGF1R kinase LCCA assay) was 50 to 500 nM in each case.
On to `CN(C)C(=O)Oc1cccc(Nc2ncc(Br)c(Nc3cc(C4CC4)n[nH]3)n2)c1` [Example 35], for which the IC50 in experiment [1] (IGF1R kinase LCCA assay) and in experiment [2] (IGF1R kinase LCCA assay) was 50 to 500 nM in each case.
Regarding `CCN(CC)CCCNc1cc(Nc2cc(C3CC3)n[nH]2)nc(Nc2ccccc2Cl)n1` [Example 182], the IC50 in experiment [1] (IGF1R kinase LCCA assay) and in experiment [2] (IGF1R kinase LCCA assay) was 500 to 5000 nM throughout.
For the compound `Nc1ncnc2c1c(-c1cccc(OCc3ccccc3)c1)cn2CC1CC2CNCC2C1` (stereo not drawn) [Example 358], the IC50 in experiment [1] (IGF1R kinase LCCA assay) and in experiment [2] (IGF1R kinase LCCA assay) was > 5000 nM in each case.
As for `c1cc(Nc2cc(C3CC3)[nH]n2)nc(NCc2cc(C3CCCCC3)no2)n1` [Example 129], the figures for the concentration for half-maximal inhibition (IC50) in experiment [1] (IGF1R kinase LCCA assay) and in experiment [2] (IGF1R kinase LCCA assay) were 50 to 500 nM and 500 to 5000 nM, respectively.
With `CC(C)c1cc(CNc2nc(Nc3cc(C4CC4)n[nH]3)cc(OCCN3CCCCC3)n2)on1` [Example 597, N^4-(3-cyclopropyl-1H-pyrazol-5-yl)-N^2-{[3-(1-methylethyl)isoxazol-5-yl]methyl}-6-[(2-piperidin-1-ylethyl)oxy]pyrimidine-2,4-diamine], the IC50 was < 50 nM in experiment [1] and 50 to 500 nM in experiment [2].
On to `Cc1cc(Nc2cc(C3CC3)n[nH]2)nc(Nc2ccc(CCN3CCOCC3)cc2)n1` [Example 556], for which the half-maximal inhibitory concentration (IC50) in experiment [1] (IGF1R kinase LCCA assay) and in experiment [2] (IGF1R kinase LCCA assay) was 500 to 5000 nM throughout.
`Cc1cc(Nc2nc(Nc3ccccc3)ncc2Br)[nH]n1` [Example 90]: the IC50 in experiment [1] (IGF1R kinase LCCA assay) is 50 to 500 nM; in experiment [2] (IGF1R kinase LCCA assay), 500 to 5000 nM.
In the case of `NC(=O)c1ccc(Oc2ncc(Br)c(Nc3cc(C4CC4)n[nH]3)n2)cc1` [Example 158], the IC50 in experiment [1] (IGF1R kinase LCCA assay) and in experiment [2] (IGF1R kinase LCCA assay) was 500 to 5000 nM in each case.
On to `c1ccc(-c2cc(CNc3nc(Nc4cc(C5CC5)[nH]n4)cc(N4CCOCC4)n3)on2)nc1` [Example 612, N^4-(5-cyclopropyl-1H-pyrazol-3-yl)-6-morpholin-4-yl-N^2-[(3-pyridin-2-ylisoxazol-5-yl)methyl]pyrimidine-2,4-diamine], for which the IC50 in experiment [1] is < 50 nM; in experiment [2], 50 to 500 nM.
In the case of `Cc1cc(Nc2nc(Nc3ccc(N4CCOCC4)cc3)ncc2Br)n(C)n1` [Example 215], the values for the IC50 in experiment [1] (IGF1R kinase LCCA assay) and in experiment [2] (IGF1R kinase LCCA assay) were 500 to 5000 nM and > 5000 nM, respectively.
In the case of `Clc1ccccc1CCNc1ncc(Br)c(Nc2cc(C3CC3)n[nH]2)n1` [Example 272], the IC50 in experiment [1] (IGF1R kinase LCCA assay) and in experiment [2] (IGF1R kinase LCCA assay) was > 5000 nM throughout.
Turning to `CN1CCN(c2cc(Nc3cc(C4CC4)n[nH]3)nc(NCc3cc(-c4cncnc4)no3)n2)CC1` [Example 642, N^4-(3-cyclopropyl-1H-pyrazol-5-yl)-6-(4-methylpiperazin-1-yl)-N^2-[(3-pyrimidin-5-ylisoxazol-5-yl)methyl]pyrimidine-2,4-diamine], the IC50 was < 50 nM in experiment [1] and 50 to 500 nM in experiment [2].
The matching figures for `CC(C)c1cc(Nc2cc(N3CCN(C)CC3)nc(NCc3cc(-c4ccc(F)cc4)no3)n2)[nH]n1` [Example 608, N^2-{[3-(4-fluorophenyl)isoxazol-5-yl]methyl}-N^4-[3-(1-methylethyl)-1H-pyrazol-5-yl]-6-(4-methylpiperazin-1-yl)pyrimidine-2,4-diamine]: < 50 nM and 50 to 500 nM.
As for `Brc1cnc(NCc2cc(-c3ccccc3)no2)nc1Nc1cc(-c2ccccc2)n[nH]1` [Example 323], the half-maximal inhibitory concentration (IC50) in experiment [1] (IGF1R kinase LCCA assay) and in experiment [2] (IGF1R kinase LCCA assay) was > 5000 nM each time.
On to `Brc1cnc(Nc2ccc(-c3ccccc3)cc2)nc1Nc1cc(C2CC2)[nH]n1` [Example 322], for which the IC50 in experiment [1] (IGF1R kinase LCCA assay) and in experiment [2] (IGF1R kinase LCCA assay) was > 5000 nM in each case.
In the case of `CC(C)c1cc(Nc2cc(N3CCN[C@@H](C)C3)nc(NCc3cc(-c4ccccc4)no3)n2)n[nH]1` [Example 591, N^4-[5-(1-methylethyl)-1H-pyrazol-3-yl]-6-[(3S)-3-methylpiperazin-1-yl]-N^2-[(3-phenylisoxazol-5-yl)methyl]pyrimidine-2,4-diamine], the IC50 in experiment [1] is < 50 nM; in experiment [2] it was 50 to 500 nM.
For the compound `CCCCNc1cc(C)nc(Nc2ccc(N3CCOCC3)cc2)n1` [Example 294], the IC50 in experiment [1] (IGF1R kinase LCCA assay) and in experiment [2] (IGF1R kinase LCCA assay) was > 5000 nM each time.
Regarding `Brc1cnc(Nc2ccc(N3CCOCC3)cc2)nc1Nc1ccc2c(c1)CNCC2` [Example 534], the IC50 is < 50 nM in experiment [1] (IGF1R kinase LCCA assay) and 500 to 5000 nM in experiment [2] (IGF1R kinase LCCA assay).
As for `CN(Cc1ccccc1Cl)c1ncc(Br)c(Nc2cc(C3CC3)[nH]n2)n1` [Example 204], the IC50 in experiment [1] (IGF1R kinase LCCA assay) and in experiment [2] (IGF1R kinase LCCA assay) was 500 to 5000 nM throughout.
With `c1ccc(-c2cc(CNc3nc(Nc4cc(C5CC5)[nH]n4)cc(OCCN4CCOCC4)n3)on2)cc1` [Example 501], the IC50 in experiment [1] (IGF1R kinase LCCA assay) was < 50 nM; in experiment [2] (IGF1R kinase LCCA assay) it was 50 to 500 nM.
Turning to `CCc1cc(CNc2nc(Nc3cc(C4CC4)n[nH]3)cc(N3CCN(C)CC3)n2)on1` [Example 655, N^4-(3-cyclopropyl-1H-pyrazol-5-yl)-N^2-[(3-ethylisoxazol-5-yl)methyl]-6-(4-methylpiperazin-1-yl)pyrimidine-2,4-diamine], the IC50 was < 50 nM in experiment [1] and 50 to 500 nM in experiment [2].
Take `CN1CCC(Oc2cc(Nc3cc(C4CC4)[nH]n3)nc(NCc3cc(-c4ccccc4)no3)n2)C1` (stereo not drawn) [Example 515]: the IC50 was < 50 nM in experiment [1] (IGF1R kinase LCCA assay) and 50 to 500 nM in experiment [2] (IGF1R kinase LCCA assay).
As to `c1ccc(CN2CCc3c(nc(NCc4cc(-c5ccccc5)no4)nc3Nc3cc(C4CC4)[nH]n3)C2)cc1` [Example 242], the IC50 in experiment [1] (IGF1R kinase LCCA assay) and in experiment [2] (IGF1R kinase LCCA assay) was 500 to 5000 nM each time.
`Cc1cc(Nc2cc(N3CCOCC3)nc(NCc3cc(C)no3)n2)[nH]n1` [Example 627, N^2-[(3-methylisoxazol-5-yl)methyl]-N^4-(3-methyl-1H-pyrazol-5-yl)-6-morpholin-4-ylpyrimidine-2,4-diamine]: the figures for the IC50 in experiment [1] and in experiment [2] were 50 to 500 nM and 500 to 5000 nM, respectively.
As for `Cc1cc(NCc2ccccc2)nc(NCc2cc(-c3ccccc3)no2)n1` [Example 298], the IC50 in experiment [1] (IGF1R kinase LCCA assay) and in experiment [2] (IGF1R kinase LCCA assay) was > 5000 nM each time.
Turning to `CN1CCN(c2cc(Nc3cc(C4CC4)[nH]n3)nc(NCc3cc(-c4ccccn4)no3)n2)CC1` [Example 611, N^4-(5-cyclopropyl-1H-pyrazol-3-yl)-6-(4-methylpiperazin-1-yl)-N^2-[(3-pyridin-2-ylisoxazol-5-yl)methyl]pyrimidine-2,4-diamine], the IC50 in experiment [1] was < 50 nM; in experiment [2], 50 to 500 nM.
As to `O=C(NCCN1CCCCC1)c1cc(Nc2cc(C3CC3)[nH]n2)nc(NCc2cc(-c3ccccc3)no2)n1` [Example 531], the IC50 in experiment [1] (IGF1R kinase LCCA assay) is < 50 nM; in experiment [2] (IGF1R kinase LCCA assay), 50 to 500 nM.
The like results for `Cc1cc(Nc2cc(C3CC3)[nH]n2)nc(NCc2cc(-c3ccccn3)no2)n1` [Example 498] were, in that order, 50 to 500 nM and 50 to 500 nM.
The like results for `O=C(NCCN1CCOCC1)c1cc(Nc2cc(C3CC3)[nH]n2)nc(NCc2cc(-c3ccccc3)no2)n1` [Example 533] were, in that order, 50 to 500 nM and 50 to 500 nM.
The matching figures for `CC(=O)Nc1cnc(Nc2ccccc2Cl)nc1Nc1cc(C2CC2)n[nH]1` [Example 280]: > 5000 nM and > 5000 nM.
